Results as given in patent publication US20250002471A1 (Gilead Sciences, Inc., priority 2020, published 2025).
Where two headings read alike, the source gives them in different places.

Tests used:
TLR7 = molecular target: T1, TLR7 (Homo sapiens, UniProt Q9NYK1); experiment: Human PBMC cell-based assay, TLR7 agonist GS-986 stimulation, cytokine (IL-6 and IFNα) readout; conditions: human PBMCs, read-out: TLR-7 EC50
T1 construct: lymphocytes, monocytes and dendritic cells that express TLR7, TLR8 and TLR9; endogenous in cells; host or cells: human PBMCs from healthy donors
T1 sequence (Q9NYK1 27-1049): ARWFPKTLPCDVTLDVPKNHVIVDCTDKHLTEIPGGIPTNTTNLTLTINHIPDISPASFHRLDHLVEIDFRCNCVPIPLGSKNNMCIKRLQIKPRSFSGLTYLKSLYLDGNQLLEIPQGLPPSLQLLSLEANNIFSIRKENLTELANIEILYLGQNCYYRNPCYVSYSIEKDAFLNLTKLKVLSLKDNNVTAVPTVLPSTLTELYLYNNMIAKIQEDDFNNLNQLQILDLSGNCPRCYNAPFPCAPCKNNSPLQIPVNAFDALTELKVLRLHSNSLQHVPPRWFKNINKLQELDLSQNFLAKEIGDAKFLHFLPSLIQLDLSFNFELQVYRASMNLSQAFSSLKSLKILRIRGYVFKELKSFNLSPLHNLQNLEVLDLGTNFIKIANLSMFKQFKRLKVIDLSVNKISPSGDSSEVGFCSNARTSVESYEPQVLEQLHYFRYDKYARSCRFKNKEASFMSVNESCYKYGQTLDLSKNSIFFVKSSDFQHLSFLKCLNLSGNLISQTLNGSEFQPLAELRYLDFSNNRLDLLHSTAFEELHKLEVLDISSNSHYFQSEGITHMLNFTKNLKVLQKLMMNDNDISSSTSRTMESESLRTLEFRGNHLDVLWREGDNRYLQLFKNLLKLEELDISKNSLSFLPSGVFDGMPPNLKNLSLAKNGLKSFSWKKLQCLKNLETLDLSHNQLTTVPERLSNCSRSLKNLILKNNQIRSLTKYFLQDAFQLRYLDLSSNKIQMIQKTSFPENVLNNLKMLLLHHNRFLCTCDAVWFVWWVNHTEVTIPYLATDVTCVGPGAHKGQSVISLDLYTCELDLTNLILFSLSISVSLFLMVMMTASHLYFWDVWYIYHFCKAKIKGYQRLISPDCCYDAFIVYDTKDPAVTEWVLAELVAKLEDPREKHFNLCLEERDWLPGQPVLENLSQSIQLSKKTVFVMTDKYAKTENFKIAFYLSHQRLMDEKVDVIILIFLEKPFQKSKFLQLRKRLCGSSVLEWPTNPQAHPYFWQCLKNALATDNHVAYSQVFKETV
Procedure, shortened: (§1)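 Cryopreserved healthy-donor PBMCs (100,000 cells/well, RPMI-1640 + 10% FBS) preincubated 1 h at 37 °C with antagonist (10-point dose response), then stimulated 6 h with GS-986 (400 nM final, TLR7) or ODN-2216 (3 μM final, TLR9). Supernatant IL-6 and IFNα measured by electrochemiluminescence immunoassay; EC50 from sigmoidal fit.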

TLR9 = molecular target: T2, TLR9 (Homo sapiens, UniProt Q9NR96); experiment: Human PBMC cell-based assay, TLR9 agonist ODN-2216 stimulation, cytokine (IL-6 and IFNα) readout; conditions: human PBMCs, read-out: TLR-9 EC50
T2 construct: lymphocytes, monocytes and dendritic cells that express TLR7, TLR8 and TLR9; endogenous in cells; host or cells: human PBMCs from healthy donors
T2 sequence (Q9NR96 26-1032): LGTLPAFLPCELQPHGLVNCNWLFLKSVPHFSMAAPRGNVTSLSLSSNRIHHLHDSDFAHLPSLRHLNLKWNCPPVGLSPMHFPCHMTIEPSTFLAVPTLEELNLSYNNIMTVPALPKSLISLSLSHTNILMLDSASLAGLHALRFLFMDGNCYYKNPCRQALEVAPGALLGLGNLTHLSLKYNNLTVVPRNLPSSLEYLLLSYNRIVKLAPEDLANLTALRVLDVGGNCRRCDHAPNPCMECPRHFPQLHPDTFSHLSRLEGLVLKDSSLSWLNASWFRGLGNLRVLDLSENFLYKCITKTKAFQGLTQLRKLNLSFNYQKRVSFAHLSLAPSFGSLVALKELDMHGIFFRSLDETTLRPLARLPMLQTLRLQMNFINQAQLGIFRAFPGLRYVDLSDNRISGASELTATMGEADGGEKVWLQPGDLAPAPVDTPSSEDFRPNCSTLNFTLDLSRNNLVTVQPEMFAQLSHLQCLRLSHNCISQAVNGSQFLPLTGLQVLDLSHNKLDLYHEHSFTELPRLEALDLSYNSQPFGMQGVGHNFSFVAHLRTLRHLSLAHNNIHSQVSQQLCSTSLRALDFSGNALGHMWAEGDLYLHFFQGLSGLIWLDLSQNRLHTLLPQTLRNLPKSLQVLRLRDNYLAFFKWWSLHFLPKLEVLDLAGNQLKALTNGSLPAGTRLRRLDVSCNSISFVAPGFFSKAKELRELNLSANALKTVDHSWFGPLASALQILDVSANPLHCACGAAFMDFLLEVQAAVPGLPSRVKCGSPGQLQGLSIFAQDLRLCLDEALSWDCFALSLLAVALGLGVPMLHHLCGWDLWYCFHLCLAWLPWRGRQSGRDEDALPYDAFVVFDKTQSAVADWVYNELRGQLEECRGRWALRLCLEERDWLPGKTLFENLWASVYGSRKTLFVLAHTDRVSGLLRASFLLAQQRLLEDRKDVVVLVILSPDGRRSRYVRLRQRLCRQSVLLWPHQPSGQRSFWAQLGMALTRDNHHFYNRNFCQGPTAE
Procedure, shortened: as §1

[1] = molecular target: cloned hERG potassium channel encoded by the KCNH2 gene (Homo sapiens, UniProt Q12809); experiment: hERG FASTPatch assay (QPatch patch clamp, HEK293T cells); type: cell-based; conditions: HEK293T cells, 1, 3, 10 and 30 uM, room temperature; Table 27
cloned hERG potassium channel encoded by the KCNH2 gene, sequence (Q12809 whole entry): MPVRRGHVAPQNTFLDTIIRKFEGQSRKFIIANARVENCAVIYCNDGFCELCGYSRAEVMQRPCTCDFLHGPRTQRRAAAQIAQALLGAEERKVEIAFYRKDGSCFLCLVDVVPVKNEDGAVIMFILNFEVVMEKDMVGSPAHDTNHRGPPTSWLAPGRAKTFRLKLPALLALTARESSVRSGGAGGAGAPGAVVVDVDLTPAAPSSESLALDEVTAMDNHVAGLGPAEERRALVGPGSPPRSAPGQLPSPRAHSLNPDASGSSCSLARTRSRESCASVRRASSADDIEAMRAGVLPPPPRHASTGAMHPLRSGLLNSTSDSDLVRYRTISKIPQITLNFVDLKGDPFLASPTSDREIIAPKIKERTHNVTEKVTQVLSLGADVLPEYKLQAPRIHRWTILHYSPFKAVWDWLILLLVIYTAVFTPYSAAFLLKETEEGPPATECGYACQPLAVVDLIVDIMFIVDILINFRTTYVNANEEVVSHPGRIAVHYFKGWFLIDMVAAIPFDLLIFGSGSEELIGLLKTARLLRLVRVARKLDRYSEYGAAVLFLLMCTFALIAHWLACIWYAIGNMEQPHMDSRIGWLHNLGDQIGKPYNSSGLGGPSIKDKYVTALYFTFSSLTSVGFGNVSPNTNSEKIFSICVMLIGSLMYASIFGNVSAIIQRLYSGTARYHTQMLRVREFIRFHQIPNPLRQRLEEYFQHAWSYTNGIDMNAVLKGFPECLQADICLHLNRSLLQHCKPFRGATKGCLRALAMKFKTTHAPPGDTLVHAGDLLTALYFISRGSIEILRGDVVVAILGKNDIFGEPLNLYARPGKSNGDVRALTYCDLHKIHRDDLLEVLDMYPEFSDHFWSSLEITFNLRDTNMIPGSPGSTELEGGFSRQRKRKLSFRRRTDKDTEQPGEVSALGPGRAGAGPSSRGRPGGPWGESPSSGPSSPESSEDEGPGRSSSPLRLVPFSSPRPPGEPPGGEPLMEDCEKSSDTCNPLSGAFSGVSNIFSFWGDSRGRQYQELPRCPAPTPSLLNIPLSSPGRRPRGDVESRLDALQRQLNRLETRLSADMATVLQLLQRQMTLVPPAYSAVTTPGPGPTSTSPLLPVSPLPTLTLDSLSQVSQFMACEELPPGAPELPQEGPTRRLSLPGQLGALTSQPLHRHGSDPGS
Description: The FASTPatch® Assay (Charles River) was used to examine the in vitro effects of the compounds provided herein on the cloned hERG potassium channel encoded by the KCNH2 gene and stably expressed in HEK293T cells. Vehicle, test and control article formulations were prepared by diluting DMSO stock solutions in HB-PS (HEPES-buffered physiological saline solution) and were delivered to cells via the QPatch robot pipetting system to a final concentration of 0.3% DMSO. Test compound final concentrations of 1, 3, 10 and 30 uM were applied to cells (n >3, where n=the number of cells/concentration) in ascending order in at least three minute intervals separated by solution exchange. The positive control, 50 nM cisparide, was applied in the same manner. Cell membrane currents were recorded at room temperature with up to 48 parallel patch clamp amplifiers in the QPatch HT® or QPatch HTX® system, and only cells with validated whole-cell recordings (seal resistance >200 MQ and leak current <25% channel current) were used. Onset and block of hERG current was measured using a stimulus voltage pattern consisting of a 500 ms prepulse to −40 mV, a 2-second activating pulse to +40 mV, followed by a 2-second test pulse to −40 mV. The pulse pattern was repeated continuously at 10-second intervals from a holding potential of −80 mV. % Block={1-1/[1+([Test]/IC50)^N]}*100% Where [Test] is the concentration of test article, IC50 is the concentration of the test article producing half-maximal inhibition, N is the Hill coefficient and % Block is the percentage of current inhibited at each concentration of the test article. Nonlinear least squares fits will be solved with the Solver add-in for Excel 2000 or later (Microsoft, Redmon, WA). TurboSol analysis for test compound solubility was performed for each concentration tested using a Nephelostar reader measuring light scatter from a 635 nm laser source. Based on validation experiments, light scatter above four times the background level was considered an indication of the presence of particles in suspension.

[2] = GS-986 400 nM, 6 hours, Table 26
[3] = ODN-2216 3 μM, 6 hours, Table 26

SMILES | EC50 (TLR7; [2]) | EC50 (TLR9; [3]) | IC50 [1] | EC50 (TLR7; Table 27 comparison) | EC50 (TLR9; Table 27 comparison)
Cc1cc(-c2[nH]c3cc(-c4ccc(N5CCC(C)(N)CC5)nc4)ccc3c2C)cc(C)n1 [Example 23] | 16.8 nM | 29 nM | 18500 nM |  | 
Cc1cc(-c2[nH]c3ccc(-c4ccnc(N5CCNCC5)c4)cc3c2C(C)C)cc(C)n1 [Example B, reference compound] |  |  | 2100 nM | 7.8 nM | 285 nM
Cc1cc(-c2[nH]c3ccc(C4CCCNC4)cc3c2C(C)C)cc(C)n1 (stereo not drawn) [Example C, reference compound] |  |  | 11000 nM | 2.3 nM | 583 nM
Cc1cc(-c2[nH]c3ccc(-c4ccc(N5CCC(C)(N)CC5)nc4)cc3c2C(C)C)cc(C)n1 [Example D, reference compound] |  |  | 7800 nM | 12 nM | 249 nM
Cc1cc(-c2[nH]c3cc(-c4ccnc(N5CCNCC5)c4)ccc3c2C)cc(C)n1 [Example 64] | 315 nM | 136 nM | 20300 nM |  | 
